The values below come from patent US10065990B2, “Cyclic peptide compound, and preparation method, pharmaceutical composition and use thereof” (HANGZHOU GUANYU BIO-MEDICAL CO., LTD, priority 2013, dated 2018).

Like-named read-outs stand apart in the source and are kept apart here.

Usually GI50 stands for the concentration at which growth is held to half of that of the control. As usually defined, the IC50 is the point on the concentration scale where inhibition reaches its midpoint.

Assay [1] deals with PANC-1 (Pac-1, human pancreatic cancer cells). The experiment in a line: MTT cancer cell growth inhibition. It is filed as cell-based. Conditions: Homo sapiens, PANC-1, 72 h, MTT, 72 hours incubation, read-out: GI50 PAN. The gist of the method: (§1)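 Three-day compound exposure (final 10^−5–10^−10 M, three replicate wells) of cells seeded at 1500 per well precedes a 4 h MTT incubation at 37° C. Viability is taken from 570 nm absorbance after DMSO solubilisation, and GI50 calculated from it.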

The test system of assay [2] is SGC-7901 (human gastric cancer cells). The experiment in a line: MTT cancer cell growth inhibition. The format is cell-based. The note with it: Homo sapiens, SGC-7901, 72 h, MTT, 72 hours incubation, SGC-7901 cells; read-out: GI50 SGC-7901. The gist of the method:
as §1

Assay [3] deals with U937 (human leukemia cells). The experiment in a line: MTT cancer cell growth inhibition. It is filed as cell-based. Conditions: Homo sapiens, U-937, 72 h, MTT, 72 hours incubation, read-out: GI50 U93. The gist of the method:
as §1

For assay [4], the system named is KBM5-T315I (human chronic myelogenous leukemia). Description: MTT cancer cell growth inhibition. It is filed as cell-based. The note with it: Homo sapiens, 72 h, MTT, 72 hours incubation, KBM5-T315I cells; read-out: GI50 KBM5-T315I. The gist of the method: as §1
For assay [5], the system named is KBM-5 (human chronic myelogenous leukemia). Description: MTT cancer cell growth inhibition. It is filed as cell-based. Conditions: Homo sapiens, KBM5, 72 h, MTT, 72 hours incubation, KBM-5 cells; read-out: GI50 KBM-5. The gist of the method: as §1
Assay [6] has as its system Hela (human cervical cancer cells). Description: MTT cancer cell growth inhibition. The format is cell-based. The note with it: Homo sapiens, HeLa, 72 h, MTT, 72 hours incubation, read-out: GI50 Hela. The method, boiled down: as §1
Assay [7] relates to HT1080 (human fibrosarcoma cells). Description: MTT cancer cell growth inhibition. It is filed as cell-based. The note with it: Homo sapiens, HT-1080, 72 h, MTT, 72 hours incubation, read-out: GI50 HT1. The gist of the method:
as §1

The test system of assay [8] is HCC827 (human non-small cell lung cancer cells). Description: MTT cancer cell growth inhibition. It is filed as cell-based. Conditions: Homo sapiens, HCC827, 72 h, MTT, 72 hours incubation, HCC827 cells; read-out: GI50 HCC827. The gist of the method: as §1
The subject of assay [9] is Huh-7 (human hepatoma cells). The experiment in a line: MTT cancer cell growth inhibition. Conditions: Homo sapiens, Huh-7, 72 h, MTT, 72 hours incubation, Huh-7 cells; read-out: GI50 Huh-7. It is filed as cell-based. The gist of the method:
as §1

The test system of assay [10] is MDA-MB-231 (breast cancer cells). Description: MTT cancer cell growth inhibition. The format is cell-based. Conditions: Homo sapiens, MDA-MB-231, 72 h, read-out: GI50 MDA-MB-231, MTT, 72 hours incubation, MDA-MB-231 cells. The gist of the method: as §1
The test system of assay [11] is K562 (human leukemia cells). The experiment in a line: MTT cancer cell growth inhibition. It is filed as cell-based. The note with it: Homo sapiens, K562, 72 h, MTT, 72 hours incubation, K562 cells; read-out: GI50 K562. The gist of the method: as §1
For assay [12], the system named is MCF-7 (human breast cancer cells). The experiment in a line: MTT cancer cell growth inhibition. It is filed as cell-based. Conditions: Homo sapiens, MCF7, 72 h, 72 hours incubation, read-out: GI50 MCF. The gist of the method: as §1
The subject of assay [13] is H1975 (non-small cell lung adenocarcinoma). Description: MTT cancer cell growth inhibition. It is filed as cell-based. Conditions: Homo sapiens, NCI-H1975, 72 h, MTT, 72 hours incubation, H1975 cells; read-out: GI50 H1975. The method, boiled down: as §1
Assay [14] deals with DU145 (human prostate cancer cells). The experiment in a line: MTT cancer cell growth inhibition. It is filed as cell-based. Conditions: Homo sapiens, DU-145, 72 h, MTT, 72 hours incubation, read-out: GI50 Du1. The gist of the method:
as §1

For assay [15], the system named is lncap (prostate cancer cells). The experiment in a line: MTT cancer cell growth inhibition. It is filed as cell-based. Conditions: Homo sapiens, LNCaP, 72 h, MTT, 72 hours incubation, read-out: GI50 lnca. The gist of the method: as §1
Assay [16] deals with N-87 (human gastric cancer cells). Description: MTT cancer cell growth inhibition. It is filed as cell-based. Conditions: Homo sapiens, 72 h, MTT, 72 hours incubation, N-87 cells; read-out: GI50 N-87. The method, boiled down: as §1
In assay [17] the test system is BGC-823 (human gastric cancer cells). Description: MTT cancer cell growth inhibition. It is filed as cell-based. The note with it: Homo sapiens, BGC-823, 72 h, MTT, 72 hours incubation, read-out: GI50 BG. The method, boiled down:
as §1

For assay [18], the system named is Bel-7402 (human hepatoma cells). The experiment in a line: MTT cancer cell growth inhibition. The note with it: Homo sapiens, Bel-7402, 72 h, MTT, 72 hours incubation, Bel-7402 cells; read-out: GI50 Bel-7402. The format is cell-based. The method, boiled down:
as §1

Assay [19] deals with MOLT-4 (human acute lymphoblastic leukemia cells). The experiment in a line: MTT cancer cell growth inhibition. Conditions: Homo sapiens, MOLT-4, 72 h, MTT, 72 hours incubation, read-out: GI50 Mol. The format is cell-based. The gist of the method: as §1
In assay [20] the test system is A549 (human lung cancer cells). Description: MTT cancer cell growth inhibition. The note with it: Homo sapiens, A549, 72 h, MTT, 72 hours incubation, read-out: GI50 A54. The format is cell-based. The method, boiled down:
as §1

For a further assay, the target named is HDAC2 (Homo sapiens, UniProt Q92769). The experiment in a line: HDAC biochemical activity measurement (fluorescent substrate deacetylation).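 Also: HDAC2 enzyme with an acetyl-lysine fluorescent substrate, then developer added, fluorescence read at excitation 360 nm and emission 460 nm, inhibition measured across several compound concentrations.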 The note with it: 37° C. 30 minutes.
Sequence of HDAC2 (Q92769 whole entry, species assumed): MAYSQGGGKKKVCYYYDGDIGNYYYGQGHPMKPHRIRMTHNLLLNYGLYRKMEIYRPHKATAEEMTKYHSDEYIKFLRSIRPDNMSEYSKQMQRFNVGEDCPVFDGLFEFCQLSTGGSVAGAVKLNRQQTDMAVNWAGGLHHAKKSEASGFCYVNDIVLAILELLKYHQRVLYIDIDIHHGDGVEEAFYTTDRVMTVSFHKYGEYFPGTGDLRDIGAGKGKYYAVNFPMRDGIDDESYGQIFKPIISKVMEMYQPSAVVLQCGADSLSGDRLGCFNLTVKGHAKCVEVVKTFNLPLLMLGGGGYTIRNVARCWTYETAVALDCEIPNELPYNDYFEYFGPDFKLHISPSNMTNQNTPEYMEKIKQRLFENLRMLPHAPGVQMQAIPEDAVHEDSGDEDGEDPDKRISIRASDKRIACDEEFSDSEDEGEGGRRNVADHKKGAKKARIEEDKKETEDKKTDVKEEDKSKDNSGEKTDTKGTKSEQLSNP

Turning to `C/C=C1\NC(=O)c2cc(F)cc(n2)CNC(=O)C[C@@H](/C=C/CCSC(=O)CCCCCCC)OC(=O)[C@H](CC)NC1=O` [Compound 55], the concentration for 50% growth inhibition (GI50) worked out at 80 nM in assay [1]; 59 nM in assay [2]; 50 nM in [3]; 73 nM in [4]; 89 nM in assay [5]; 80 nM in assay [6]. Moreover, the GI50 was 80 nM in assay [7]; 81 nM in assay [8]; 29 nM in [9]; 29 nM in assay [10]; 36 nM in assay [11]; 70 nM in [12]. In addition, the 50% growth inhibitory concentration (GI50) in assay [13] was determined as 52 nM; in assay [14], 30 nM; in assay [15], 20 nM; in assay [16] it was 55 nM; in assay [17], 50 nM; in assay [18], 81 nM. Further, the results for the GI50 in assay [19] and in [20] were 20 nM and 50 nM, respectively. At HDAC2, this compound had an IC50 of 34 nM.
Turning to `C/C=C1\NC(=O)c2nc(ccc2F)CNC(=O)C[C@@H](/C=C/CCSC(=O)CCCCCCC)OC(=O)[C@H](C(C)C)NC1=O` [Compound 30], the GI50 was 80 nM in assay [1]; 35 nM in assay [2]; 30 nM in assay [3]; 22 nM in assay [4]; 82 nM in assay [5]; 80 nM in assay [6]. In addition, the GI50 in assay [7] turned out to be 80 nM; in assay [8], 82 nM; in assay [9] it was 37 nM; in assay [10] it was 37 nM; in assay [11], 38 nM; in assay [12] it was 20 nM. Also, the 50% growth inhibitory concentration (GI50) in [13] amounted to 39 nM; in [14], 30 nM; in assay [15] it was 30 nM; in assay [16] it was 30 nM; in assay [17] it was 30 nM; in [18] it was 82 nM. Also, the concentration for 50% growth inhibition (GI50) in assay [19] and in [20] was 30 nM in each case. It took 56 nM to reach half-maximal inhibition at HDAC2 (IC50).
Turning to `C/C=C1\NC(=O)c2nc(ccc2SC)CNC(=O)C[C@@H](/C=C/CCS)OC(=O)[C@H](C)NC1=O` [Compound 232], the GI50 was found to be 10 nM in [1] (PANC-1 cells); 63 nM in [2]; 90 nM in assay [3] (U937 cells); 43 nM in assay [4]; 8 nM in [5]; 30 nM in [6] (Hela cells). For the same compound, the GI50 stood at 20 nM in assay [7] (HT1080 cells); 38 nM in assay [8]; 21 nM in assay [9]; 23 nM in assay [10]; 42 nM in [11]; 80 nM in [12] (MCF-7 cells). Moreover, the GI50 in assay [13] was found to be 56 nM; in [14] (DU145 cells) it was 50 nM; in assay [15] (lncap cells), 30 nM; in assay [16], 45 nM; in assay [17] (BGC-823 cells) it was 50 nM; in assay [18] it was 35 nM. For the same compound, the 50% growth inhibitory concentration (GI50) was 50 nM in assay [19] (MOLT-4 cells) and 30 nM in [20] (A549 cells). Besides, the IC50 against HDAC2 was 93 nM.
`C/C=C1\NC(=O)c2ccc(SC)c(n2)CNC(=O)C[C@@H](/C=C/CCSC(C)=O)OC(=O)[C@H](CC)NC1=O` [Compound 179]: the GI50 in assay [1] (PANC-1 cells) was 60 nM; in assay [2], 19 nM; in assay [3] (U937 cells), 50 nM; in assay [4] it was 28 nM; in assay [5] it was 61 nM; in assay [6] (Hela cells), 30 nM. Besides, the 50% growth inhibitory concentration (GI50) in [7] (HT1080 cells) is 40 nM; in [8], 25 nM; in assay [9], 15 nM; in [10] it was 51 nM; in [11] it was 71 nM; in [12] (MCF-7 cells), 60 nM. Further, the GI50 in assay [13] was determined as 54 nM; in [14] (DU145 cells), 30 nM; in [15] (lncap cells), 100 nM; in assay [16], 73 nM; in [17] (BGC-823 cells), 30 nM; in assay [18], 65 nM. The figures for the 50% growth inhibitory concentration (GI50) in assay [19] (MOLT-4 cells) and in [20] (A549 cells) were 80 nM and 60 nM, respectively. Further, the half-maximal inhibitory concentration (IC50) against HDAC2 came to 51 nM.
Turning to `C/C=C1\NC(=O)c2cc(F)cc(n2)CCNC(=O)C[C@@H](/C=C/CCSC(C)=O)OC(=O)[C@H](C(C)C)NC1=O` [Compound 104], the concentration for 50% growth inhibition (GI50) in [1] was 90 nM; in [2], 26 nM; in assay [3] it was 50 nM; in assay [4], 68 nM; in assay [5] it was 79 nM; in assay [6] it was 30 nM. The concentration for 50% growth inhibition (GI50) is 90 nM in assay [7]; 49 nM in [8]; 89 nM in [9]; 20 nM in assay [10]; 33 nM in assay [11]; 20 nM in assay [12]. Further, the GI50 was found to be 38 nM in [13]; 40 nM in assay [14]; 30 nM in [15]; 96 nM in assay [16]; 10 nM in [17]; 57 nM in [18]. The figures for the GI50 in assay [19] and in assay [20] were 30 nM and 50 nM, respectively. Also, the IC50 on HDAC2 was 26 nM.
Consider `C/C=C1\NC(=O)c2nc(ccc2SC)CNC(=O)C[C@@H](/C=C/CCSC(=O)CCCCCCC)OC(=O)[C@H](CC)NC1=O` [Compound 171], for which the GI50 in assay [1] (PANC-1 cells) turned out to be 10 nM; in [2], 28 nM; in assay [3] (U937 cells), 20 nM; in [4], 68 nM; in assay [5] it was 33 nM; in [6] (Hela cells), 50 nM. Further, the 50% growth inhibitory concentration (GI50) in assay [7] (HT1080 cells) came out at 40 nM; in [8] it was 23 nM; in [9] it was 53 nM; in assay [10], 65 nM; in [11], 46 nM; in assay [12] (MCF-7 cells), 10 nM. Besides, the GI50 in assay [13] was 71 nM; in assay [14] (DU145 cells), 10 nM; in [15] (lncap cells), 50 nM; in assay [16], 39 nM; in assay [17] (BGC-823 cells) it was 70 nM; in assay [18], 38 nM. For the same compound, the GI50 amounted to 20 nM in assay [19] (MOLT-4 cells) and 50 nM in [20] (A549 cells). The compound also returned an IC50 at HDAC2 of 35 nM.
